Measurements published in patent US10947188B2, “Small molecule ferroptosis inducers” (THE TRUSTEES OF COLUMBIA UNIVERSITY IN THE CITY OF NEW YORK, priority 2016, dated 2021).

Legend:
HT-1080 = assay: Modulatory profiling: Alamar Blue viability, lethal compound cotreated with death modulator (EC50, AUC); type: cell-based; set-up: AUC, modulator HT.3MA / AUC, modulator HT.ALLN / AUC HT.ATA / AUC HT.ActD / AUC HT.BHA / AUC HT.BHT / AUC HT.BocD / AUC HT.CHX / AUC HT.Co2+ / AUC HT.DPQ / AUC HT.EGTA / AUC HT.Lmim / AUC HT.NAD+ / AUC HT.Nec-1 / AUC HT.SP600125 / AUC HT.TLCK / AUC HT.U0126: unit not given beside the values; settings: for AUC HT.ATA: HT-1080, modulator ATA; for AUC HT.ActD: HT-1080, modulator ActD; for AUC HT.BHA: HT-1080, modulator BHA; for AUC HT.BHT: HT-1080, modulator BHT; for AUC HT.BocD: HT-1080, modulator BocD; for AUC HT.CHX: HT-1080, modulator CHX; for AUC HT.Co2+: HT-1080, modulator Co2+; for AUC HT.CspA: HT-1080, modulator CspA; for AUC HT.DPQ: HT-1080, modulator DPQ; for AUC HT.EGTA: HT-1080, modulator EGTA; for AUC HT.Gd3+: HT-1080, modulator Gd3+; for AUC HT.LNAME: HT-1080, modulator LNAME; for AUC HT.Lmim: HT-1080, modulator Lmim; for AUC HT.NAD+: HT-1080, modulator NAD+; for AUC HT.NMMA: HT-1080, modulator NMMA; for HT.atoc (AUC) / HT.bCarotene (AUC) / HT.deferox (AUC) / HT.digoxin (AUC) / HT.trolox (AUC) / HT.zVAD (AUC): HT-1080; for HT.atoc (AUC): modulator atoc; for HT.bCarotene (AUC): modulator bCarotene; for HT.deferox (AUC): modulator deferox; for HT.digoxin (AUC): modulator digoxin; for HT.trolox (AUC): modulator trolox; for HT.zVAD (AUC): modulator zVAD; as to AUC HT.BHA: reference of the scale not given here; as to AUC HT.EGTA: reference of the scale not given here
BJeLR = assay: as above; type: cell-based, human; set-up: AUC, modulator BJ.Gd3+ / AUC, modulator BJ.LNAME / AUC, modulator BJ.Lmin / AUC, modulator BJ.3MA / AUC, modulator BJ.ALLN / AUC, modulator BJ.Boc D / AUC, modulator BJ.CHX / AUC, modulator BJ.Co2+ / AUC, modulator BJ.Nec-1 / AUC, modulator BJ.Pepstatin / AUC, modulator BJ.TLCK / AUC, modulator BJ.atoc / AUC, modulator BJ.trolox / AUC, modulator BJ.zVAD: unit not given beside the values; settings: BJeLR cells, modulatory profile value (AUC); for AUC, modulator BJ.3MA: lethal compound cotreated with modulator 3MA; for AUC, modulator BJ.ALLN: lethal compound cotreated with modulator ALLN; for AUC, modulator BJ.Boc D: lethal compound cotreated with modulator Boc D; for AUC, modulator BJ.CHX: lethal compound cotreated with modulator CHX; for AUC, modulator BJ.Co2+: lethal compound cotreated with modulator Co2+; for AUC, modulator BJ.DPQ: lethal compound cotreated with modulator DPQ; for AUC, modulator BJ.Gd3+: lethal compound cotreated with modulator Gd3+; for AUC, modulator BJ.LNAME: lethal compound cotreated with modulator LNAME; for AUC, modulator BJ.Lmin/NAD+: lethal compound cotreated with modulator Lmin/NAD+; for AUC, modulator BJ.Lmin: lethal compound cotreated with modulator Lmin; for AUC, modulator BJ.NAD+: lethal compound cotreated with modulator NAD+; for AUC, modulator BJ.NMMA: lethal compound cotreated with modulator NMMA; for AUC, modulator BJ.Nec-1: lethal compound cotreated with modulator Nec-1; for AUC, modulator BJ.Pepstatin: lethal compound cotreated with modulator Pepstatin; for AUC, modulator BJ.TLCK: lethal compound cotreated with modulator TLCK
For AUC, modulator BJ.3MA in this document: reference of the scale not given here.
For AUC, modulator BJ.ALLN in this document: reference of the scale not given here.
For AUC, modulator BJ.Boc D in this document: reference of the scale not given here.
For AUC, modulator BJ.CHX in this document: reference of the scale not given here.
For AUC, modulator BJ.Co2+ in this document: reference of the scale not given here.
For AUC, modulator BJ.DPQ in this document: reference of the scale not given here.
For AUC, modulator BJ.Gd3+ in this document: reference of the scale not given here.
For AUC, modulator BJ.LNAME in this document: reference of the scale not given here.
For AUC, modulator BJ.NAD+ in this document: reference of the scale not given here.
For AUC, modulator BJ.NMMA in this document: reference of the scale not given here.
For AUC, modulator BJ.Nec-1 in this document: reference of the scale not given here.
For AUC, modulator BJ.Pepstatin in this document: reference of the scale not given here.
For AUC, modulator BJ.TLCK in this document: reference of the scale not given here.

## COc1cc([C@@H]2c3cc4c(cc3[C@@H](O[C@@H]3O[C@@H]5CO[C@@H](C)O[C@H]5[C@H](O)[C@H]3O)[C@H]3COC(=O)[C@H]23)OCO4)cc(OC)c1O [Etoposide]
HT-1080
  AUC HT.ATA: −0.0363
  AUC HT.ActD: −0.09944
  AUC HT.BHA: 0.04757
  AUC HT.BHT: −0.0005481
  AUC HT.BocD: 0.05886
  AUC HT.CHX: 0.113
  AUC HT.Co2+: 0.3926
  AUC HT.CspA: −0.177
  AUC HT.DPQ: 0.006422
  AUC HT.EGTA: 0.02457
  AUC HT.Gd3+: 0.02668
  AUC HT.LNAME: 0.005444
  AUC HT.Lmim: 0.05001
  AUC HT.NAD+: 0.0527
  AUC HT.NMMA: 0.01603
  HT.atoc (AUC): −0.006276
  HT.bCarotene (AUC): 0.00393
  HT.deferox (AUC): 0.1428
  HT.digoxin (AUC): 0.1311
  HT.trolox (AUC): 0.01328
  HT.zVAD (AUC): 0.03817
HT-1080; HT-1080, modulator Nec-1
  AUC HT.Nec-1: −0.005949
HT-1080; HT-1080, modulator Pepstatin
  AUC HT.Pepstatin: −0.001737
HT-1080; HT-1080, modulator SP600125
  AUC HT.SP600125: 0.00478
HT-1080; HT-1080, modulator TLCK
  AUC HT.TLCK: 0.1489
HT-1080; HT-1080, modulator U0126
  AUC HT.U0126: −0.02627
HT-1080; HT-1080 cells, lethal compound cotreated with modulator 3MA, modulatory profile value (AUC)
  AUC, modulator HT.3MA: 0.007208
HT-1080; HT-1080 cells, lethal compound cotreated with modulator ALLN, modulatory profile value (AUC)
  AUC, modulator HT.ALLN: 0.03277
BJeLR
  AUC, modulator BJ.3MA: −0.06196
  AUC, modulator BJ.ALLN: 0.06099
  AUC, modulator BJ.Boc D: 0.0612
  AUC, modulator BJ.CHX: 0.1255
  AUC, modulator BJ.Co2+: 0.0951
  AUC, modulator BJ.DPQ: −0.0469
  AUC, modulator BJ.Gd3+: 0.01317
  AUC, modulator BJ.LNAME: 0.004515
  AUC, modulator BJ.Lmin/NAD+: 0.1011
  AUC, modulator BJ.Lmin: 0.04682
  AUC, modulator BJ.NAD+: 0.08359
  AUC, modulator BJ.NMMA: −0.03678
  AUC, modulator BJ.Nec-1: −0.04354
  AUC, modulator BJ.Pepstatin: 0.01632
  AUC, modulator BJ.TLCK: 0.01399
BJeLR; lethal compound cotreated with modulator atoc
  AUC, modulator BJ.atoc: −0.01038
BJeLR; lethal compound cotreated with modulator trolox
  AUC, modulator BJ.trolox: −0.01808
BJeLR; lethal compound cotreated with modulator zVAD
  AUC, modulator BJ.zVAD: 0.06084

## C[C@H]1CCC[C@]2(C)C[C@H]3OC(=O)[C@H](CN4CCCC4)[C@H]3C=C12 [CIL80]
HT-1080
  AUC HT.ATA: 0.05781
  AUC HT.ActD: 0.08002
  AUC HT.BHA: 0.009452
  AUC HT.BHT: −0.01971
  AUC HT.BocD: −0.02337
  AUC HT.CHX: 0.09741
  AUC HT.Co2+: 0.112
  AUC HT.CspA: 0.01161
  AUC HT.DPQ: −0.01717
  AUC HT.EGTA: 0.0199
  AUC HT.Gd3+: −0.03226
  AUC HT.LNAME: 0.01972
  AUC HT.Lmim: 0.05449
  AUC HT.NAD+: 0.01251
  AUC HT.NMMA: −0.01256
  HT.atoc (AUC): 0.004877
  HT.bCarotene (AUC): 0.003874
  HT.deferox (AUC): 0.1672
  HT.digoxin (AUC): 0.06493
  HT.trolox (AUC): −0.01954
  HT.zVAD (AUC): 0.03135
BJeLR
  AUC, modulator BJ.3MA: 0.00654
  AUC, modulator BJ.ALLN: −0.004769
  AUC, modulator BJ.Boc D: 0.008783
  AUC, modulator BJ.CHX: 0.1351
  AUC, modulator BJ.Co2+: 0.09506
  AUC, modulator BJ.DPQ: −0.03368
  AUC, modulator BJ.Gd3+: 0.01802
  AUC, modulator BJ.LNAME: 0.02901
  AUC, modulator BJ.Lmin/NAD+: 0.09271
  AUC, modulator BJ.Lmin: 0.01639
  AUC, modulator BJ.NAD+: −0.008515
  AUC, modulator BJ.NMMA: −3.885E−05
  AUC, modulator BJ.Nec-1: −0.01593
  AUC, modulator BJ.Pepstatin: 0.03142
  AUC, modulator BJ.TLCK: −0.006094

## COc1ccc(C(=O)C(CN2CCCC2)c2ccccc2)cc1 (stereo not shown) [CIL72]
HT-1080
  AUC HT.ATA: 0.05533
  AUC HT.ActD: 0.02924
  AUC HT.BHA: −0.04013
  AUC HT.BHT: −0.1002
  AUC HT.BocD: −0.02415
  AUC HT.CHX: 0.1147
  AUC HT.Co2+: 0.1163
  AUC HT.CspA: −0.01912
  AUC HT.DPQ: −0.03157
  AUC HT.EGTA: 0.009608
  AUC HT.Gd3+: −9.532E−05
  AUC HT.LNAME: 0.01226
  AUC HT.Lmim: −0.001821
  AUC HT.NAD+: 0.004195
  AUC HT.NMMA: −0.004443
  HT.atoc (AUC): −0.02111
  HT.bCarotene (AUC): −0.01233
  HT.deferox (AUC): 0.1972
  HT.digoxin (AUC): −0.01413
  HT.trolox (AUC): −0.03591
  HT.zVAD (AUC): 0.05314
BJeLR
  AUC, modulator BJ.3MA: 0.01714
  AUC, modulator BJ.ALLN: 0.00459
  AUC, modulator BJ.Boc D: 0.02672
  AUC, modulator BJ.CHX: 0.2585
  AUC, modulator BJ.Co2+: 0.1176
  AUC, modulator BJ.DPQ: −0.01087
  AUC, modulator BJ.Gd3+: 0.03013
  AUC, modulator BJ.LNAME: 0.001053
  AUC, modulator BJ.Lmin/NAD+: 0.07102
  AUC, modulator BJ.Lmin: 0.004844
  AUC, modulator BJ.NAD+: −0.0366
  AUC, modulator BJ.NMMA: 0.01422
  AUC, modulator BJ.Nec-1: −0.02464
  AUC, modulator BJ.Pepstatin: 0.01988
  AUC, modulator BJ.TLCK: 0.03641
